Measured values reported in patent publication US5872124A, “Treatment of diseases of the central nervous system using uric acid as a scavenger of peroxynitrite” (Thomas Jefferson University, priority 1996, dated 1999).

Columns and labels:
nitric oxide (NO) [1] = assay: NO levels in spinal cord and brain of SJL mice with EAE; format: in vivo
Experimental: SJL mice are immunized subcutaneously with pMBP in adjuvant to induce EAE, from which they often recover. Commencing ten days post-immunization, groups of mice (n=6) were treated once daily with 2 mg of either PTIO or carboxy-PTIO intraperitoneally and observed for clinical signs of EAE which were graded as detailed in Table 1. […] At 18 days […], NO determinations were performed in several mice from each group.

nitric oxide (NO) [2] = assay: NO level in spinal cord of Lewis rats with adoptive transfer EAE (spin trapping, EPR); format: in vivo
Experimental: (§1) In FIG. 1, EAE was elicited in 11 week old female Lewis rats by the adoptive transfer of 20×10^6 cells of the MBP-specific line 5HGBP.G5 activated by stimulation with MBP and syngeneic APC 48 hours previously and NO levels measured 5 days after transfer. In SWXJ-14 mice, EAE was triggered by two subcutaneous immunizations (d.0 and 7) with 100 μg PLP in CFA over two injection sites, and NO levels measured 18 days later. Results expressed represent the mean values obtained from a minimum of 4 animals. Peak severity of the symptoms of EAE ranged from 2-3 for the rats and 4-5 for the mice. NO was semi-quantitated using spin trapping with DETC and EPR-spectroscopy as described previously.
Rats were injected i.v. with 20×10^6 MBP-specific CD4 T cells activated in vitro. Two days later the animals were treated with a single dose of either PTIO (20 mg) or a mixture of PTIO (20 mg), indomethacin (1 mg), and allopurinol (13 mg). Treatment was continued on a daily basis until day 4 and animals were sacrificed for NO measurement the following day.

[3] = test system: experimental allergic encephalomyelitis (EAE), PLP immunization; assay: Clinical severity of PLP-induced EAE in SWXJ-14 mice; format: in vivo; conditions: started 4-5 days after immunization with myelin antigens
Experimental: FIG. 2. Effect of daily administration of c-PTIO (carboxy-PTIO) on EAE in SWXJ-14 mice. EAE was induced in SWJX-14 mice by two subcutaneous immunizations (d.0 and d.7) of […] PLP in CFA over two injection sites. Mice (N=3) were treated beginning on day 5 post-immunization with 2 mg/mouse c-PTIO […] i.p. and was continued until day 16 post-immunization (day 0 being the day of first immunization). Mean severity scores were graded as detailed in Table 1.
FIG. 4. Effect of D609 on the development of EAE in SWXJ-14 mice. SWXJ-mice were immunized with PLP as detailed for FIG. 2. Mice (n=2) were treated i.p. with 1 mg/mouse D609 from day 5 through day 14 post-immunization. Mean severity scores were graded as detailed in Table 1.
FIG. 12. Effect of the administration of various doses of uric acid on EAE in SWXJ-14 mice. EAE was induced in SWXJ-14 mice by two subcutaneous immunizations (d.0 and 7) of […] PLP in CFA over two injection sites. Mice (n=5) were treated once daily, beginning on day 5 post-immunization, with the indicated doses of uric acid. Mean severity scores were graded as detailed in Table 1.
Induction of EAE in rats by adoptive transfer of MBP-specific T cells or in SJL or SWXJ-14 mice by immunization with MBP or PLP 139-151, a peptide derived from […] [8], results in variable disease. We have scored the clinical systems of EAE as tabulated below.
Severity scores and symptoms of Experimental Allergic
1 piloerection, tail weakness
3 hind limb weakness/paralysis
4 hind and forelimb paralysis
as §1
Clinical symptoms manifest as an ascending paralysis approximately 13 days after immunization and the disease rapidly progresses to its fatal endpoint by day 16-20. […] NO levels in the brains and spinal cords of animals treated with a single daily dose of PTIO were semi-quantitated by spin trapping and EPR spectroscopy on day 17 after immunization, one day after treatment was terminated. […] We expect that the removal of NO by PTIO should not necessarily interfere with the induction of the response responsible for NO production and that as the supplied PTIO is used up NO levels should rapidly return to control values.
In contrast to SJL mice, SWX mice immunized with PLP undergo a progressive,often fatal form of EAE. Clinical symptoms manifest as an ascending paralysis approximately 13 days after immunization and the disease rapidly progresses to its fatal endpoint by days 16-20. […] We conclude that the amount of carboxy-PTIO we administered, especially considering the short in vivo half life of the compound, was only sufficient to delay the onset of the EAE in the SWXJ-14 mouse.
NO is not universally considered to be a molecule with significant in vivo toxicity and peroxynitrite is thought to be the more toxic molecule produced by activated inflammatory cells resulting from the interaction of NO and superoxide. We would henceforth expect that removal of NO would reduce peroxynitrite formation. To determine whether NO or peroxynitrite is more likely to be ultimately responsible for clinical disease in EAE we have performed a series of experiments using uric acid, a known scavenger of peroxynitrite, to treat EAE induced in SWXJ-14 mice by immunization with PLP.

Water solubility = format: physicochemical
[4] = test system: experimental allergic encephalomyelitis (EAE), PLP immunization; assay: Survival of SWXJ-14 mice with EAE; format: in vivo
Experimental: FIG. 14. Comparison of the survival of SWXJ-14 mice with EAE treated with PTIO and uric acid. SWXJ-mice were immunized with PLP in CFA as described for FIG. 12 and treated once daily with a 2 mg dose of uric acid or PTIO i.p. from day 5 to day 13, followed by two daily doses on day 14 and three daily doses thereafterward.
To more directly compare the action of PTIO and uric acid in EAE we have administered each of these agents in parallel to PLP-immunized SWXJ-14 mice. In these experiments the mice were immunized with PLP and treated with increasing doses of PTIO or uric acid beginning at day 5 after immunization.

## CC1(C)N([O])C(c2ccccc2)=[N+]([O-])C1(C)C [PTIO, 2-phenyl-4,4,5,5-tetramethylimidazoline-1-oxyl-3-oxide]
Nitric oxide (NO) [1]; 2 mg once daily i.p., day 18
  NO levels in spinal cord (FIG. 8): lower in the spinal cords
Nitric oxide (NO) [1]; SJL mice, i.p. administration
  Levels of NO in spinal cord: reduce levels of NO detected in spinal cord
Nitric oxide (NO) [1]; SJL mouse - immunization EAE, Table 2
  NO-spinal cord: 1.6 mM
Nitric oxide (NO) [2]; Rat-adoptive transfer EAE, Table 2
  NO-spinal cord: undetectable
Nitric oxide (NO) [2]; rats, adoptive transfer EAE, i.p. administration
  Levels of NO in spinal cord: reduce levels of NO detected in spinal cord
[3]
  Effectiveness when treatment is started after immunization: effective when started 4-5 days after immunization with myelin antigens
Water solubility
  Water solubility: not water soluble
[4]; at termination of the experiment
  Improvement in clinical signs of surviving mice (FIG. 14): a number were actually beginning to show some improvement in the clinical signs of their disease
[4]; several days after day 18, 2 mg i.p. once daily day 5-13, two doses day 14, then three daily
  Mice still alive (FIG. 14): 40%
